Test [1] concerns the target human recombinant sGC enzyme (Homo sapiens (Human), UniProt Q02108+Q02153). The experiment in a line: SEC competition binding assay with [3H] Compound B radioligand. As to conditions: displacement of 1.6 nM [3H] Compound B, 24 h at 37° C. A digest of the protocol: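 Competition format: [3H] Compound B (1.6 nM) displaced from human recombinant sGC over 24 h at 37° C. in triethanolamine pH 7.4 buffer with MgCl2, BSA, DTT, 300 μM DETA/NO and 400 μM GTP (1% DMSO). Gel-filtration eluates counted by liquid scintillation; 1 μM Compound B defined non-specific binding; Ki by one-site fit.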

A further test addresses sGC α1/β1 heterodimer (Homo sapiens (Human), UniProt Q02108+Q02153). The experiment in a line: Cell-based sGC functional assay (CASA assay), cGMP by HTRF. As to conditions: CHO-K1/sGC cells; for Emax: CHO-K1, cGMP production as percentage of maximum of compound A (set to 100%), read-out: % Activation; for EC50: inflection point of cGMP production, 4P fit, read-out: IP. A digest of the protocol:
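cGMP made in CHO-K1/sGC (human α1/β1) cells is read by HTRF after compound treatment for 1 hr at 37° C, following 30 min at 25° C with or without 1 μM DETA-NO; IBMX 0.5 mM present. Values are % of standard compound maximum; 4P fit.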
Background: In TR-FRET formats the signal depends on donor and acceptor labels being close together.

Test [2] concerns hypoxia-induced pulmonary hypertension in rat. The experiment in a line: Acute efficacy in hypoxia-induced pulmonary hypertension in rat following intratracheal (IT) administration. Format: in vivo. As to conditions: IT dose 0.03 mpk, decrease in SBP at dose giving decrease in PAP ≥15 mmHg. An excerpt:
Acute Efficacy in Hypoxia-Induced Pulmonary Hypertension in Rat Following Intratracheal (IT) Administration Charles River Sprague-Dawley (CD) male rats weighing approximately 350 g were implanted with HD-S21 dual pressure telemetry transmitters (Data Sciences International (DSI)) into the pulmonary artery and femoral artery. This transmitter enables simultaneous measurement of both pulmonary and systemic hemodynamic parameters in the same animal. After a 7-10 day post-operative recovery period, animals were subjected to a normobaric hypoxic (10% oxygen) environment using a Higher Peak Mountain Air Generator (MAG-10) connected to a modified rodent cage via a fitted inlet port. Oxygen (at 10%), temperature, humidity, and CO2 were controlled within normal range and animals were maintained on a 12 hour light-dark cycle with ad libitum access to food and water. After two weeks exposure to 10% O2 hypoxic environment, systolic pulmonary arterial pressure readings increased from ˜25 mmHg to greater than 50 mmHg. Using a 48 hour baseline average, animals with readings between 50-110 mmHg (standard deviation of less than 10 mmHg) and minimal changes in systolic systemic blood pressure were enrolled for study. Animals were utilized for up to 2 studies per week for 4 weeks with a minimum of 2 days washout between doses of test agent. Compound or vehicle was administered intra-tracheally under light isoflurane anesthesia (5% in oxygen; flow rate 2.0 L/min for 3 minutes). Once anesthetized, rats were placed on an angled intubation stand in supine position and the trachea visualized using a small laryngoscope. Animals then received either 0.5 mL/kg of vehicle or 0.5 mL/kg vehicle containing compound intra-tracheally delivered via microsprayer by use of a Penn-Century Microsprayer® needle 3″ (Model IA-1B-GP) attached to a 1 mL high pressure syringe (Penn Century-Model B—SYR-PL1000) (Penn-Century, Philadelphia, Pa.). The Microsprayer® tip was inserted into the trachea up to the point at which the bend in the needle is close to the tip of the snout, which positions the tip of the Microsprayer® in front of the carina (bifurcation of trachea at the bronchi). After dose delivery the animal is placed on its back in the home cage for recovery. Hemodynamic measurements were continuously recorded and readings consolidated to hourly moving averages. Each animal received a vehicle on Day 1 followed by vehicle or test agent on Day 2. Change from vehicle baseline was calculated by subtracting the hourly Day 1 vehicle response from the hourly Day 2 response and treatment group data was expressed as mean±SEM. Decreases of systolic blood pressure (SBP) and systolic pulmonary arterial pressure (PAP) were measured at a particular IT dose (mpk milligrams per kilogram) for the following Example compounds. Compounds in the Table 13 achieved a minimum decrease in PAP of ≥15 mmHg for the corresponding decrease in SBP listed.

The term Ki denotes a measure of affinity in units of concentration, obtained from inhibition or displacement.

`CC1(c2cc(O)c(C#N)c(F)c2)C(=O)Nc2nc(-c3cn4ccnc4c(CC4CCCCC4)n3)nc(N)c21` (stereo not shown) [Example 18-B, 4-(4-Amino-2-(8-(cyclohexylmethyl)imidazo[1,2-a]pyrazin-6-yl)-5-methyl-6-oxo-6,7-dihydro-5H-pyrrolo[2,3-d]pyrimidin-5-yl)-2-fluoro-6-hydroxybenzonitrile]: the Ki in test [1] was 0.168 nM. Also, on sGC α1/β1 heterodimer, the Emax is 88% and the EC50 was 950 nM. Further, in test [2], the “Category (decrease in SBP)” value was “B (decrease in SBP 5-10 mmHg)”.

`CC1(c2ccc(Cl)c(O)c2)C(=O)Nc2nc(-c3cn4ncnc4c(CCC(F)(F)C(F)(F)F)n3)nc(NCCC(F)(F)F)c21` (stereo not shown) [Example 138-A, 5-(4-Chloro-3-hydroxy-phenyl)-5-methyl-2-(8-(3,3,4,4,4-pentafluoro-butyl)-[1,2,4]triazolo-[1,5-a]pyrazin-6-yl)-4-((3,3,3-trifluoropropyl)-amino)-5,7-dihydro-6H-pyrrolo[2,3-d]pyrimidin-6-one]: in test [1], the Ki is 4.62 nM. Also, on sGC α1/β1 heterodimer, the Emax is 65% and the EC50 was found to be 169 nM.

For the compound `CC1(c2ccc(O)c(F)c2)C(=O)Nc2nc(-c3cn4ncnc4c(Cc4ccc(F)cc4)n3)nc(N)c21` (stereo not shown) [Example 41-B, 4-Amino-5-(3-fluoro-4-hydroxyphenyl)-2-{8-[(4-fluorophenyl)methyl]-[1,2,4]triazolo[1,5-a]pyrazin-6-yl}-5-methyl-5,7-dihydro-6H-pyrrolo[2,3-d]pyrimidin-6-one], in test [1], the Ki amounted to 0.49 nM. Moreover, at sGC α1/β1 heterodimer, the Emax stood at 136% and the EC50 worked out at 588 nM.

For the compound `CC1(c2ccc(Cl)c(O)c2)C(=O)Nc2nc(-c3cn4ccnc4c(Cc4cccc(F)c4)n3)nc(NCC(O)C(F)(F)F)c21` (stereo not shown) [Example 131-AA, 5-(4-Chloro-3-hydroxy-phenyl)-2-{8-[(3-fluoro-phenyl)methyl]imidazo-[1,2-a]pyrazin-6-yl}-5-methyl-4-[(3,3,3-trifluoro-2-hydroxypropyl)amino]-5,7-dihydro-6H-pyrrolo-[2,3-d]pyrimidin-6-one], the Ki in test [1] was 0.884 nM. Moreover, on sGC α1/β1 heterodimer, the Emax came out at 89% and the EC50 amounted to 427 nM.

With `CC1(c2nccc(O)c2Cl)C(=O)Nc2nc(-c3cn4ccnc4c(Cc4cc(F)cc(F)c4)n3)nc(N)c21` (stereo not shown) [Example 111-B, 4-Amino-5-(3-chloro-4-hydroxypyridin-2-yl)-2-{8-[(3,5-difluorophenyl)-methyl]imidazo[1,2-a]-pyrazin-6-yl}-5-methyl-5,7-dihydro-6H-pyrrolo-[2,3-d]pyrimidin-6-one], in test [1], the Ki amounted to 1.74 nM. Moreover, at sGC α1/β1 heterodimer, the Emax stood at 86% and the EC50 was 1540 nM.

Consider `CC1(c2ccc(O)c(F)c2)C(=O)Nc2nc(-c3cn4ccnc4c(Cc4cccc(F)c4)n3)nc(N)c21` (stereo not shown) [Example 125-B, 4-Amino-5-(3-fluoro-4-hydroxyphenyl)-2-{8-[(3-fluorophenyl)methyl]-imidazo[1,2-a]pyrazin-6-yl}-5-methyl-5,7-dihydro-6H-pyrrolo[2,3-d]-pyrimidin-6-one], for which, in test [1], the Ki is 0.508 nM. On sGC α1/β1 heterodimer, the Emax stood at 164% and the EC50 was 601 nM.

On to `CC1(c2cc(Cl)c(O)c(Cl)c2)C(=O)Nc2nc(-c3cn4ncnc4c(CC4CCCCC4)n3)nc(N)c21` (stereo not shown) [Example 112-B, 4-Amino-2-(8-(cyclo-hexylmethyl)-[1,2,4]-triazolo[1,5-a]pyrazin-6-yl)-5-(3,5-dichloro-4-hydroxyphenyl)-5-methyl-5,7-dihydro-6H-pyrrolo[2,3-d]pyrimidin-6-one], for which the Ki in test [1] was determined as 1.78 nM. Also, at sGC α1/β1 heterodimer, the Emax was determined as 112% and the EC50 was found to be 16 nM.

Take `Cc1cn2cc(-c3nc(N)c4c(n3)NC(=O)C4(C)c3ccc(Cl)c(O)c3)nc(Cc3ccccc3F)c2n1` (stereo not shown) [Example 100-A, 4-Amino-5-(4-chloro-3-hydroxyphenyl)-2-{8-[(2-fluorophenyl)methyl]-2-methylimidazo[1,2-a]pyrazin-6-yl}-5-methyl-5,7-dihydro-6H-pyrrolo[2,3-d]pyrimidin-6-one]: the inhibition constant Ki in test [1] was determined as 0.544 nM. Also, at sGC α1/β1 heterodimer, the Emax was 106% and the EC50 was found to be 652 nM.

For the compound `CC1(c2ccc(C(F)(F)F)c(O)c2)C(=O)Nc2nc(-c3cn4ccnc4c(Cc4cc(F)cc(F)c4F)n3)nc(N)c21` (stereo not shown) [Example 33-B, 4-Amino-5-(3-hydroxy-4-(trifluoromethyl)phenyl)-5-methyl-2-{8-[(2,3,5-trifluorophenyl)methyl]imidazo[1,2-a]pyrazin-6-yl}-5,7-dihydro-6H-pyrrolo[2,3-d]pyrimidin-6-one], in test [1], the Ki was found to be 0.312 nM. At sGC α1/β1 heterodimer, the Emax amounted to 111% and the EC50 is 260 nM.

Regarding `CC1(c2ccc(O)c(Cl)c2)C(=O)Nc2nc(-c3cn4ncnc4c(Cc4ccc(F)cc4)n3)nc(N)c21` (stereo not shown) [Example 66-B, 4-Amino-5-(3-chloro-4-hydroxyphenyl)-2-{8-[(4-fluorophenyl)methyl]-[1,2,4]triazolo[1,5-a]pyrazin-6-yl}-5-methyl-5,7-dihydro-6H-pyrrolo[2,3-d]pyrimidin-6-one], in test [1], the Ki was 2.57 nM. Moreover, on sGC α1/β1 heterodimer, the Emax was found to be 141% and the EC50 stood at 2150 nM.

Turning to `CCCCc1nc(-c2nc(N)c3c(n2)NC(=O)C3(C)c2ccc(O)cc2)cn2ncnc12` (stereo not shown) [Example 70-B, 4-Amino-2-(8-butyl-[1,2,4]triazolo[1,5-a]pyrazin-6-yl)-5-(4-hydroxyphenyl)-5-methyl-5,7-dihydro-6H-pyrrolo[2,3-d]pyrimidin-6-one], the Ki in test [1] was 3.96 nM. Also, on sGC α1/β1 heterodimer, the Emax is 81% and the EC50 came to 32 nM.

As to `CC1(c2ccc(Cl)c(O)c2)C(=O)Nc2nc(-c3cn4ncnc4c(CCC(F)(F)C(F)(F)F)n3)nc(N3CCC(C(F)(F)F)CC3)c21` (stereo not shown) [Example 137-A, 5-(4-Chloro-3-hydroxy-phenyl)-5-methyl-2-(8-(3,3,4,4,4-pentafluoro-butyl)-[1,2,4]triazolo-[1,5-a]pyrazin-6-yl)-4-(4-(trifluoromethyl)-piperidin-1-yl)-5,7-dihydro-6H-pyrrolo-[2,3-d]pyrimidin-6-one], the Ki in test [1] stood at 2.63 nM. Besides, on sGC α1/β1 heterodimer, the Emax stood at 99% and the EC50 came out at 744 nM.

With `CC1(c2ncc(Cl)c(O)c2Cl)C(=O)Nc2nc(-c3cn4ccnc4c(Cc4cc(F)cc(F)c4)n3)nc(N)c21` (stereo not shown) [Example 73-A, 4-Amino-5-(3,5-dichloro-4-hydroxypyridin-2-yl)-2-{8-[(3,5-difluorophenyl)methyl]imidazo[1,2-a]pyrazin-6-yl}-5-methyl-5,7-dihydro-6H-pyrrolo[2,3-d]pyrimidin-6-one], the Ki in test [1] came to 6.01 nM. On sGC α1/β1 heterodimer, the Emax was found to be 81% and the EC50 stood at 694 nM.

As to `CC1(c2cc(O)c(Cl)c(F)c2)C(=O)Nc2nc(-c3cn4ncnc4c(CC4CCCCC4)n3)nc(N)c21` (stereo not shown) [Example 21-B, 4-Amino-5-(4-chloro-3-fluoro-5-hydroxyphenyl)-2-(8-(cyclohexylmethyl)-[1,2,4]triazolo[1,5-a]pyrazin-6-yl)-5-methyl-5,7-dihydro-6H-pyrrolo[2,3-d]pyrimidin-6-one], the inhibitory constant (Ki) in test [1] was found to be 0.206 nM. Besides, at sGC α1/β1 heterodimer, the Emax was found to be 143% and the EC50 was 95 nM.

Take `CC1(c2ccc(Cl)c(O)c2)C(=O)Nc2nc(-c3cn4ccnc4c(CC4CCC(F)(F)CC4)n3)nc(N)c21` (stereo not shown) [Example 95-A, 4-Amino-5-(4-chloro-3-hydroxyphenyl)-2-(8-((4,4-difluorocyclohexyl)methyl)imidazo [1,2-a]pyrazin-6-yl)-5-methyl-5,7-dihydro-6H-pyrrolo[2,3-d]pyrimidin-6-one]: the Ki in test [1] is 14.4 nM. On sGC α1/β1 heterodimer, the Emax was 96% and the EC50 came to 1810 nM.

For the origin of these results see patent publication US10780092B2, “Fused pyrazine derivatives useful as soluble guanylate cyclase stimulators” (Merck Sharp & Dohme Corp., priority 2016, dated 2020).
